The source of these data is article PMC12503906, “Novel Pyrazolo [1,5‐a]−1,3,5‐Triazine Derivatives as CDK7 Inhibitors: Synthesis and Biological Insights in Pancreatic Ductal Adenocarcinoma Models” (Chemmedchem, 2025).

Common to all, as to type: cell-based
In one test the test system is PATU‐T. Put plainly: Wound healing assay, PATU‐T. The settings on record: 1 × IC50 and 4 × IC50, 4 to 24 h. As for the experimental part:
The wound healing assay was used to test the migratory ability of the selected cells post‐treatment. Cells (5 × 10^4 /well) were seeded on 96‐well. After 24 h, cells reached the optimal 100% confluency, and an artificial wound was created with a 96‐well Pintool Scratcher. The cells were immediately washed with complete medium, in order to remove cell debris after the scratch, and images of the wells were captured at time 0 h, right before the addition of the treatment. Each drug (1b and 1g) was previously diluted in the respective medium at two different concentrations: 1 × IC50 and 4 × IC50 (according to the cell specific IC50 value) and were then added to the cells. Images were then taken at timepoints 4, 8, 20, and 24 h using the Leica microscope with a JAI TMC‐137 camera to assess wound closure. The images were analyzed using the Universal Grab 6.3 software (DCILabs), and the obtained data were used to determine the percentage of migration of the cells, using the following formula. (2) % Migration=Mean width of the wound atT=0−Mean width of the wound atT=X/Mean width of the wound atT=0×100

For another test, the target named is CDK7 (Homo sapiens, UniProt P50613). Kind of test: Kinase activity profiling, PamChip array, CDK7. On the set-up: endogenous in cells; host or cells: PDAC3 primary cells. As to conditions: PDAC‐3 primary cells, IC50 concentration, 2 h, Pamgene array. As for the experimental part: (§1) A Kinase activity profiling was conducted using a PamChip (Pamgene, s‐Hertogenbosch, The Netherlands) array containing 144 peptide substrates specific to tyrosine kinases to assess activity changes upon treatment with compounds 1b and 1g. Experiments were carried out in PDAC3 cells, using biological triplicates comprising three untreated controls and three samples treated for 2 h with either compound at their respective 1 × IC50 concentrations, following protocols adapted from previous studies.^[ [38] ^] Protein concentrations were quantified using the Bio‐Rad protein assay, which is based on the Bradford method (Bio‐Rad, Hercules, CA). For chip loading, protein lysates were adjusted to a final concentration of 10 µg per array and combined with PamGene MasterMix. During the assay, samples were circulated through the array at 30 °C with one cycle per minute over 60 cycles. Fluorescence data acquisition was performed using a 12‐bit CCD camera, capturing real‐time fluorescence intensities. End‐point spot intensities were analyzed using the open‐source software ScanAnalyze, with background normalization applied. Statistical comparisons were performed using student's t‐test in R (version 3.6.1), followed by false discovery rate (FDR) correction.
CDK7, sequence (P50613 2-346 limits assumed): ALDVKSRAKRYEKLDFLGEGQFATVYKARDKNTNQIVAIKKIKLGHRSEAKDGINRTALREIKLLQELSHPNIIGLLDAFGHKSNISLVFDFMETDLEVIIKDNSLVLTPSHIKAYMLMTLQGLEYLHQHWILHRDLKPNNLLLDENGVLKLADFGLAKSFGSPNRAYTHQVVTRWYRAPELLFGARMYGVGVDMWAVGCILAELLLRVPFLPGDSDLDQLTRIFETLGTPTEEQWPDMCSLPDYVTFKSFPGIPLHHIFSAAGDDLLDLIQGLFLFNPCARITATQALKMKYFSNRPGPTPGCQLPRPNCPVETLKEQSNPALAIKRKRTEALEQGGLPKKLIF
CDK7, sequence (P51946 whole entry partner): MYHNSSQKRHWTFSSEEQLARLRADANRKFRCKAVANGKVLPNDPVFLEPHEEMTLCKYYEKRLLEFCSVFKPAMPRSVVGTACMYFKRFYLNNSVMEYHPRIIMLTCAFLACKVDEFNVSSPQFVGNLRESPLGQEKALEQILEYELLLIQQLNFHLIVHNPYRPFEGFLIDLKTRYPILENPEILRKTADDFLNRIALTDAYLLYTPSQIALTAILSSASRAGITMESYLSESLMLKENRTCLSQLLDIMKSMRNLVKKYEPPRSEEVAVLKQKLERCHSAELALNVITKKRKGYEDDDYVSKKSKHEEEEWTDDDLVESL
CDK7, sequence (P51948 whole entry partner): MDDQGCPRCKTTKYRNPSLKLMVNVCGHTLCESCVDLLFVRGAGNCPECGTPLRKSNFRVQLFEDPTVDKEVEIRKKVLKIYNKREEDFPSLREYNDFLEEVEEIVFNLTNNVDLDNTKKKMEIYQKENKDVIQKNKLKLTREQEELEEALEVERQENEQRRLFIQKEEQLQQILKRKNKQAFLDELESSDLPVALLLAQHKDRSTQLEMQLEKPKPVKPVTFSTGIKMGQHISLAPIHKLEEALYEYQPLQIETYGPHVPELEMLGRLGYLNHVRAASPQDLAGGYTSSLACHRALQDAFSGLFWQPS

Test [1] has as its system peptide substrates specific to tyrosine kinases. Kind of test: Kinase activity profiling, PamChip array, peptide substrates / other kinases. As to conditions: PDAC‐3 primary cells, IC50 concentration, 2 h, Pamgene array. As for the experimental part:
as §1

SMILES strings stand for the structures.

Take `Nc1ncnc2cc(-c3c[nH]c4ccc(Br)cc34)nn12` [Compound 1b, 7‐(5‐Bromo‐1H‐indol‐3‐yl)pyrazolo[1,5‐a][1,3,5]triazin‐4‐amine]: the “inhibition of cell migration” value in the test with PATU‐T was “greatest inhibitory effect”. For the same compound, the “inhibition of phosphorylation, CDK7 (decrease vs untreated controls)” value against CDK7 is recorded as 70%. For the same compound, the “inhibition of the other kinases (other than CDK7)” value in test [1] is given as “below 50%”.
